In patent US20250332249A1, “CYTOM[…] CELL EPITOPES AND USES THEREOF” (LA JOLLA INSTITUTE FOR IMMUNOLOGY, priority 2021, published 2025):
Where no end group is shown, it is not given here.

Tested on: PBMCs from HCMV seropositive subjects
Test: ex vivo IFN-γ Fluorospot assay
Format: cell-based, human
Settings: 19 HCMV seropositive subjects, individual peptide 10 ug/ml, 20 hr; for No. of subjects responding: IFN-γ; for Magnitude of response: IFN-γ spots (FIG. 1: SFC/10^6 PBMC; no unit in table)
Method: To define the targets of HCMV-specific T cell epitopes recognized in healthy adults, the inventors screened PBMCs of 19 subjects, 10 males and 9 females, recruited from San Diego blood bank (SDBB). The HCMV seropositivity of all the subjects was confirmed by IgG ELISA (FIG. 6A). A total of 2593 HCMV peptides covering a total of 563 ORFs (1) were tested. However, as many of these predicted ORFs overlapped 100% with others, as they were internal to longer ORFs, these 563 contained 359 completely unique ORFs composed of ˜150“canonical” ORFs, and an additional ˜200 identified by ribosomal RNA profiling (1). These peptides corresponded to predicted dominant epitopes, based on a bioinformatic method that predicts promiscuous binding to HLA class II molecules (40). Each of the ORFs above was covered by multiple predicted epitopes (with a minimum of at least 2), with the exception of very small ORFs (less than 15-20 amino acid residues), in which case at least one peptide was synthetized. The 2593 peptides were arranged in 89 pools of 28-30 15-mer peptides. PBMC reactivity of each of the 89 pools was assayed directly ex vivo using an IFN-γ Fluorospot assay.
For the initial CMV ORF screen, the responses of 19 CMV-seropositive subjects were evaluated. PBMCs were stimulated with 89 pools covering 563 ORFs of HCMV. Each pool comprised of 28-30 15-mer peptides overlapping by 10 residues. PBMCs that were found reactive to a pool were further tested against individual peptides contained in the pool using IFN-γ Fluorospot assay.
PBMC were thawed, washed and counted for viability using the trypan blue exclusion method. 200,000 cells were plated in triplicates and stimulated with pools (2 ug/ml) or peptides (10 ug/ml), PHA (10 ug/ml) or medium containing equivalent amount of DMSO in 96-well plates (Immubilion-P, Millipore) previously coated with anti IFN-γ antibody (1-DIK, Mabtech, Stockholm, Sweden). After 20 hr incubation at 37° C., cells were discarded and wells were washed six times with PBS/0.05% Tween 20 using an automated plate washer and further incubated with IFN-γ antibody (7-B6-1-FS-BAM) for 2 hrs at room temperature. After incubation, wells were washed and incubated with fluorophore conjugated anti-BAM-490 antibody for 1 hr at room temperature. Finally, the plates were washed and incubated with fluorescence enhancer for 15 min, blotted dry and fluorescent spots were counted by computer assisted image analysis (IRIS Fluorospot reader, Mabtech, Sweden).
Each pool or peptide was considered positive compared to the background that had equivalent amount of DMSO based on the following criteria: (i) 20 or more spot forming cells (SFC) per 10^6 PBMC after background subtraction, (ii) the stimulation index greater than 2, and (iii) p<0.05 by student's t test or Poisson distribution test

Substance	No. of subjects responding	Magnitude of response
214 (MLVVTVFDTTRLFEI) [compound 214]	1	840
180 (VVVGIVLCLSLASTV) [compound 180]	1	1417
20 (IINYYYVAQKKARHM) [compound 20]	1	163
167 (LRRKMMYMCYRNIEF) [compound 167]	6	1697
78 (KELSKINPSAILSAI) [compound 78]	3	18557
166 (RVDMVRHRIKEHMLK) [compound 166]	2	250
114 (GILARNLVPMVATVQ) [compound 114]	11	34633
74 (NADKFFIFPNYTIVS) [compound 74]	4	5120
59 (MPVQRLTVNVARCVF) [compound 59]	1	20
171 (ITKPEVISVMKRRIE) [compound 171]	1	1600
65 (DLKYILTRLEYLYKV) [compound 65]	1	30
136 (VRSLAVDAQHAAKRV; ends and bridges not checked) [compound 136]	1	53
172 (FAQYILGADPLRVCS) [compound 172]	1	30
103 (CRSATSLVGNTNADV) [compound 103]	1	30
54 (RREAIVRLEKTPTCQ) [compound 54]	2	407
117 (LTWCVIADRQPRFSV) [compound 117]	3	240
169 (EERDKVLTHIDHIFM) [compound 169]	2	107
91 (RSSWRASCVEVPKKP) [compound 91]	1	370
18 (AEDSVFTSTRARSAT) [compound 18]	1	490

Substance	No. of subjects responding	Magnitude of response
231 (YNRMVRFIINYVGKW) [compound 231]	1	23
86 (TMRSVFEMQRIRHGA) [compound 86]	1	67
41 (GMKTVAFDLSSPQKS; ends and bridges not checked) [compound 41]	1	193
133 (MLIQQYVLSQYYIKK; ends and bridges not checked) [compound 133]	1	20
198 (LFYRAVALGTLSALV) [compound 198]	3	2633
3 (RVRTWFVQRTTLWRR) [compound 3]	1	60
58 (FLKKMLLCALKGRAS) [compound 58]	1	930
203 (VYLWYVRRQLVAFCL) [compound 203]	3	253
32 (TGLVLLLLLLVVRLL) [compound 32]	1	1440
73 (NLNCMVTITTARSKY) [compound 73]	2	4810
49 (GRLMEVRQRNGRLRR; ends and bridges not checked) [compound 49]	1	30
96 (TAVSEFMKNTHVLIR) [compound 96]	1	747
13 (LLAVTLTVALAAPSQ; ends and bridges not checked) [compound 13]	2	6420
187 (LHRRAAVSGRRSLLQ) [compound 187]	1	87
183 (IAITMVMRFWQYING) [compound 183]	3	163
157 (HLGWQTLSNHVIRRL) [compound 157]	1	127
92 (MQKYFSLDNFLHDYV) [compound 92]	2	20343
87 (NIFLVGFYLLVPYLG) [compound 87]	1	1633
14 (KDRCLVIRRRWRLVR) [compound 14]	1	60

Substance	No. of subjects responding	Magnitude of response
142 (SGRVILWTTLRLCIL) [compound 142]	1	20
173 (EAIVAYTLATAGASS) [compound 173]	3	19333
153 (RATGNFRSTSLYAAV) [compound 153]	3	4220
151 (DPLLRLSQVAGSGRR) [compound 151]	2	2067
178 (YRNMIIHAATPVDLL) [compound 178]	2	130
66 (DPSYVREHGVPIHAD) [compound 66]	1	123
216 (VSVLYFMPSEPGSAH) [compound 216]	1	177
38 (RRTVLFNELMLWLGY; ends and bridges not checked) [compound 38]	1	180
164 (LQTMLRKEVNSQLSL) [compound 164]	2	1606
168 (CSPDEIMSYAQKIFK) [compound 168]	2	194
218 (GLYLRQYDPPALRTY) [compound 218]	2	633
93 (QTIYFLGLTALLLRY) [compound 93]	1	583
75 (GLVVFWQGIKQKSLV) [compound 75]	1	53
79 (AILSAIYNKPIAARF) [compound 79]	5	11264
119 (APFRVAAAGETPLGR; ends and bridges not checked) [compound 119]	6	1089
182 (SYLAVHLRISHRYYH) [compound 182]	1	290
33 (MLFRPTISNSIPRCR) [compound 33]	1	47
195 (SLDRFIVQYLNTLLI) [compound 195]	8	23368
40 (KELRMCLSFDSNYCR; ends and bridges not checked; cysteine pairing not given here) [compound 40]	1	127
